Reference: patent US4661505A, “Leukotriene antagonists” (Eli Lilly and Company, priority 1982, dated 1987)
Where a name gives a salt, the structure may show the parent alone.

Target: T1, LTD4 evoked ileal contractions (Cavia porcellus, UniProt Q2NNR5)
T1 construct: A section of terminal ileum was removed, the lumen cleaned, and the tissue divided into 2.5 cm. segments; from tissue; host or cells: terminal ileum of male Hartley guinea pigs
T1 sequence (Q2NNR5 1-340): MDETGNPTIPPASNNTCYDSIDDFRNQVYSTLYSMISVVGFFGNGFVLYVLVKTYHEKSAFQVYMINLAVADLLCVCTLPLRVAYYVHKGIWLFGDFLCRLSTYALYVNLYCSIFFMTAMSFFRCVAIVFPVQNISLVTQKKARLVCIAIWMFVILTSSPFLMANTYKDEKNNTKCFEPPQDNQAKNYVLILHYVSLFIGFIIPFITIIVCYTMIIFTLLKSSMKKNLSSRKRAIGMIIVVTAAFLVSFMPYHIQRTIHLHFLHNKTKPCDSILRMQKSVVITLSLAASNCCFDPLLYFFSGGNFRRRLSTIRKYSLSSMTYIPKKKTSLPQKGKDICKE
Assay: Antagonism of LTD4-evoked contraction of isolated guinea pig ileum (single concentration)
Format: cell-based
Conditions: pure LTD4, 5 minute exposure, read-out: Percent Inhibition of LTD4 evoked ileal contractions; for inhibition at 1 µM: 1 × 10^-6 M; for inhibition at 3 µM: 3 × 10^-6 M; for inhibition at 10 µM: 1 × 10^-5 M
Description: Male, Hartley guinea pigs weighing 200-450 grams were killed by decapitation. A section of terminal ileum was removed, the lumen cleaned, and the tissue divided into 2.5 cm. segments. The ilea were mounted in 10 ml. tissue baths containing Krebs-bicarbonate solution of the following composition in mmoles/liter: KCl, 4.6; CaCl2.2H2 O, 1.2; KH2 PO4, 1.2; MgSO4.7H2 O, 1.2; NaCl, 118.2; NaHCO3, 24.8 and dextrose, 10.0. The bath fluid was maintained at 37° C. and aerated with 95 percent oxygen and 5 percent CO2. In addition, the buffer contained 1×10^-6 M atropine to reduce ileal spontaneous activity. In studies with crude SRS-A, 1×10^-6M pyrilamine was used to mitigate the actions of histamine present along with the biologically active leukotrienes. Isometric measurements were made with a Grass FTO3C force-displacement transducer and recorded on a Grass polygraph as change in grams of force. A passive force of 0.5 g. was applied to the tissues. After an appropriate equilibration period, single submaximal control responses to either SRS-A or pure LTD4 were obtained. Following a 5 minute exposure of the ileum to an experimental drug, the control concentration of SRS-A or LTD4 was added to the tissue bath. The response of the ileum to SRS-A or LTD4 in the presence of the drug was compared to the response in the absence of the drug.
*Compounds marked with an asterisk were tested using crude SRSA as the
ileumcontracting agent; all other compounds were tested using pure

Row | SMILES | inhibition at 1 µM | inhibition at 3 µM | inhibition at 10 µM
1 | CCCc1c(OCCCCCCCCCCCCc2nnn[nH]2)ccc(C(C)=O)c1O [Example 14, 5-[12-(4-Acetyl-3-hydroxy-2-propylphenoxy)dodecyl]-tetrazole] | 22% | 47% | 
2 | CCCc1c(OCCCCCCC(=O)O)ccc(C(C)=O)c1O [Example 29, 7-(4-Acetyl-3-hydroxy-2-propylphenoxy)heptanoic acid] | 43% |  | 84%
3 | CCCc1c(OCCCCCCCC(=O)O)ccc(C(C)=O)c1O [Example 30, 8-(4-Acetyl-3-hydroxy-2-propylphenoxy)octanoic acid] | 62% |  | 94%
4 | CCCc1c(OCCCCC(C)(C)C(=O)OC)ccc(C(C)=O)c1O [Example 44, Methyl 6-(4-acetyl-3-hydroxy-2-propylphenoxy)-2,2-dimethylhexanoate] |  | 55% | 
5 | CCCc1c(OCCCCCCN(C)C)ccc(C(C)=O)c1O [Example 38, N,N-Dimethyl-[6-(4-acetyl-3-hydroxy-2-propylphenoxy)hexyl]amine hydrochloride] |  | 30% | 60%
6 | CCCc1c(OCCCCc2nnn[nH]2)ccc(C(C)=O)c1O [Example 8, 5-[4-(4-Acetyl-3-hydroxy-2-propylphenoxy)butyl]-tetrazole] | 89% | 100% | 
7 | CCCc1c(OCCCCCCCCCC(=O)O)ccc(C(C)=O)c1O [Example 32, 10-(4-Acetyl-3-hydroxy-2-propylphenoxy)decanoic acid] | 46% | 85% | 92%
8 | CCCc1c(OC(CCCCC(=O)O)c2ccccc2)ccc(C(C)=O)c1O (stereo not shown) [Example 19, 6-(4-Acetyl-3-hydroxy-2-propylphenoxy)-6-phenylhexanoic acid] |  | 35% | 64%
9 | CCCc1c(OCCCc2nnn[nH]2)ccc(C(C)=O)c1O [Example 23, 5-[3-(4-Acetyl-3-hydroxy-2-propylphenoxy)propyl]-tetrazole] | 15% |  | 
10 | CCCc1c(OCCCCCCN2CCOCC2)ccc(C(C)=O)c1O [Example 35, N-[6-(4-Acetyl-3-hydroxy-2-propylphenoxy)hexyl]morpholine hydrochloride] |  | 47% | 80%
11 | COC(=O)C(C)(C)CCCCOc1ccc(C(C)=O)c(O)c1 [Example 46, Methyl 6-(4-acetyl-3-hydroxyphenoxy)-2,2-dimethylhexanoate] |  |  | 23%
12 | CCCc1c(OCCCCc2nnn[nH]2)ccc(C(=O)c2ccccc2)c1O [Example 43, 5-[4-(4-Benzoyl-3-hydroxy-2-propylphenoxy)butyl]-tetrazole] | 34% | 56% | 
13 | CCCc1c(OCCCCC(C)(C)C(=O)O)ccc(C(C)=O)c1O [Example 45, 6-(4-Acetyl-3-hydroxy-2-propylphenoxy)-2,2-dimethylhexanoic acid] |  | 73% | 94%
14 | CC(=O)c1ccc(OCCCCC(C)(C)C(=O)O)cc1O [Example 47, 6-(4-Acetyl-3-hydroxyphenoxy)-2,2-dimethylhexanoic acid] |  |  | 22%
15 | CC(=O)c1ccc(OC(CCCCC(=O)O)c2ccc(-c3ccccc3)cc2)cc1O (stereo not shown) [Example 18, 6-(4-Acetyl-3-hydroxyphenoxy)-6-(4-biphenyl)hexanoic acid] |  | 34% | 
16 | CCCc1c(OC(CCC)CCCCC(=O)O)ccc(C(C)=O)c1O (stereo not shown) [Example 48, 6-(4-Acetyl-3-hydroxy-2-propylphenoxy)nonanoic acid] |  |  | 34%
17 | C=CCc1c(OCCCCCC(=O)O)ccc(C(C)=O)c1O [Example 26, 6-(4-Acetyl-3-hydroxy-2-allylphenoxy)-hexanoic acid] |  | 29% | 
18 | CCCc1c(OCCCCCCO)ccc(C(C)=O)c1O [Example 42, 6-(4-Acetyl-3-hydroxy-2-propylphenoxy)-1-hexanol] |  | 46% | 74%
19 | CCCc1c(OCCCCC(C)(C)c2nnn[nH]2)ccc(C(C)=O)c1O [Example 39, 5-[5-(4-Acetyl-3-hydroxy-2-propylphenoxy)-1,1-dimethylpentyl]-tetrazole] | 89% |  | 
20 | CC(=O)c1ccc(OC(C)CCCCC(=O)O)cc1O (stereo not shown) [Example 41, 6-(4-Acetyl-3-hydroxyphenoxy)heptanoic acid] |  | 10% | 
21 | CC(=O)c1ccc(OC(CCCCC(=O)O)c2ccc(Cc3ccccc3)cc2)cc1O (stereo not shown) [Example 16, 6-(4-Acetyl-3-hydroxyphenoxy)-6-(4-benzylphenyl)hexanoic acid] |  | 70% | 86%
22 | CCCc1c(OC(CCCCC(=O)O)c2ccc(Cc3ccccc3)cc2)ccc(C(C)=O)c1O (stereo not shown) [Example 15, 6-(4-Acetyl-3-hydroxy-2-propylphenoxy)-6-(4-benzylphenyl)hexanoic acid] |  |  | 37%
23 | CCCc1c(OCCCCCCN)ccc(C(C)=O)c1O [Example 36, 6-(4-Acetyl-3-hydroxy-2-propylphenoxy)hexylamine hydrochloride] | 26% | 42% | 
24 | CCCc1c(OCCCCCCCCCCC(=O)O)ccc(C(C)=O)c1O [Example 33, 11-(4-Acetyl-3-hydroxy-2-propylphenoxy)undecanoic acid] |  | 79% | 92%
25 | CCCc1c(OCCCCCCN2CCN(C)CC2)ccc(C(C)=O)c1O [Example 37, N-Methyl-N'-[6-(4-acetyl-3-hydroxy-2-propylphenoxy)hexyl]piperazine dihydrochloride] |  | 32% | 78%

Next, values leading:

Row | inhibition at 1 µM | inhibition at 3 µM | inhibition at 10 µM | SMILES
26 | 40% | 56% |  | CCCc1c(OCCCCC(=O)OCC)ccc(C(C)=O)c1O [Example 54, Ethyl 5-(4-acetyl-3-hydroxy-2-propylphenoxy)pentanoate]
27 | 95% |  | 100% | CCCc1c(OCCCCCCSc2nn[nH]n2)ccc(C(C)=O)c1O [Example 71, 5-[6-(4-Acetyl-3-hydroxy-2-propylphenoxy)hexanethio]-tetrazole]
28 | 17% | 42% |  | CCCc1c(OCCCCC(=O)N(C)C)ccc(C(C)=O)c1O [Example 56, N,N-dimethyl-5-(4-acetyl-3-hydroxy-2-propylphenoxy)pentanoic acid amide]
29 | 100% |  |  | CCCc1c(OCCCCCCCSc2nn[nH]n2)ccc(C(C)=O)c1O [Example 72, 5-[7-(4-Acetyl-3-hydroxy-2-propylphenoxy)heptanethio]-tetrazole]
30 | 69% |  |  | CCCc1c(OCCCCCc2nnn(CC(=O)O)n2)ccc(C(C)=O)c1O [Example 51, 5-(2H)-[5-(4-acetyl-3-hydroxy-2-propylphenoxy)pentyl]-2-tetrazolylacetic acid]
31 | 28% | 70% |  | CCCc1c(OCCCCC(=O)NO)ccc(C(C)=O)c1O [Example 61, 5-(4-Acetyl-3-hydroxy-2-propylphenoxy)pentanehydroxamic acid]
32 | 66% |  |  | CCCc1c(OCCCCCc2nnnn2CC(=O)O)ccc(C(C)=O)c1O [Example 50, 5-(1H)-[5-(4-Acetyl-3-hydroxy-2-propylphenoxy)pentyl]-1-tetrazolylacetic acid]
33 | 28% | 59% |  | CCCc1c(OCCCCC(N)=O)ccc(C(C)=O)c1O [Example 55, 5-(4-Acetyl-3-hydroxy-2-propylphenoxy)pentanoic acid amide]
34 | 38% |  |  | CCCc1c(OCCCCCc2nnnn2C)ccc(C(C)=O)c1O [Example 52, 1-Methyl-5-(1H)-[5-(4-acetyl-3-hydroxy-2-propylphenoxy)pentyl]-tetrazole]
35 | 28% | 55% |  | CCCc1c(OCCCSC(=N)N)ccc(C(C)=O)c1O [Example 60, S-[3-(4-Acetyl-3-hydroxy-2-propylphenoxy)propyl]-isothiuronium hydrobromide]
36 |  |  | 18% | CCCC(CCCCC(=O)O)Oc1ccc(C(C)=O)c(O)c1 (stereo not shown) [Example 49, 6-(4-Acetyl-3-hydroxyphenoxy)nonanoic acid]
